Assay [1] can be described thus: Oxygen consumption catalyzed by Co-P in the presence of ascorbate/TMPD (Clark oxygen electrode). As to conditions: 2 mM ascorbate, 40 μM TMPD; for Relative Rate (oxygen consumption), effect of ligand, R5 and A moiety: Table 3; for O2 consumption / redox cycling (in words): cell free ascorbate/TMPD system; for Relative Rate (oxygen consumption), effect of ligand, R5, A and n moiety: Table 4. On the procedure:
(Co-MP). Such activity can be readily determined by, for example, the assay disclosed in Example 16. In that assay, redox activity is measured by oxygen consumption catalyzed by a Co-P test compound in the presence of ascorbate and TMPD.
Ten mM stock solutions of a Co-P of this invention (i.e., test compound) were prepared using ethanol as solvent. KCl media consists of 125 mM KCl, 2 mM K2HPO4, 20 mM HEPES, pH 7.0. Oxygen consumption measurements were carried out using a Clark type oxygen electrode (Rank Brothers Ltd., Cambridge, UK) and assay solutions were magnetically stirred during the course of the experiments. To 500 μl of assay solution (KCl media supplemented with 2 mM sodium ascorbate and 40 μM […] (TMPD)) is added 2 μl of a stock solution of test compound (40 μM final concentration) and the oxygen consumption rate is followed for 2-4 min. Subsequently, a 5 μl aliquot of a freshly made catalase solution (100 mg/ml solution in KCl media) is added to determine if H2O2 is generated via redox cycling of the test compound.
Initial rates are calculated from oxygen consumption slopes and rate of a solvent control is subtracted. […] An aliquot of a 10 mM stock solution of Co-MP (final concentration of 40 μM) was added to assay buffer containing 2 mM of ascorbate and 40 μM of TMPD. […] Addition of catalase results in conversion of H2O2 present in the assay solution to O2 and H2O.
Stock solutions of the test compound were at 10 mM. Aliquots of the stock solutions were added to 500 μl of assay buffer containing 2 mM of ascorbate and 40 μM of TMPD.
Representative Co-P compounds of this invention were prepared by the procedures disclosed above, and assayed by the procedure of Example 16 to measure oxygen consumption catalyzed by the test compound in the presence of ascorbate/TMPD. […] The above procedure was then repeated for other representative Co-P compounds of this invention, but utilizing different ligands and/or R groups.

For assay [2], the system named is SH-SY5Y neuroblastoma cells. Description: Cellular assay for generation of reactive oxygen species (ROS). The assay is classed as cell-based. On the procedure: All cell culture reagents were incubated in a water bath at 37° C. for approximately 30 minutes. Existing media from a near confluent tissue culture flask containing SH-SY5Y neuroblastoma cells was aspirated using a flame sterilized glass transfer pipette attached to a trapped vacuum apparatus. Calcium free PBS buffer was pipetted into the tissue culture flask (2 ml for a 75 cm2 flask, 3 ml for a 175 cm^2 flask). The flask was tipped slightly to ensure that the buffer covers the cell culture and then the buffer was removed by aspiration. Trypsin media was pipetted into the tissue culture flask (2 ml for a 75 cm^2 flask, 3 ml for a 175 cm^2 flask) and evenly spread to ensure that the trypsin covered the cell culture. The cell culture was incubated with trypsin media for 4-6 minutes at room temperature. After cells were released from the flask, the flask was tilted to one corner. Using the existing media within the flask, the aggregated cells were collected towards one corner and repeatedly pipetted to obtain a single cell suspension. The cell suspension was transferred with a pipette into a 15 ml conical shaped centrifuge tube then cell culture media was added to the suspension up to a total volume of 14 ml. Ten μl aliquots were withdrawn and the cells were counted using a hemocytometer. The suspension was centrifuged at 200×g for 10 minutes, the supernatant was aspirated off, and the cell pellet was resuspended at 3.75×10^5 cells/ml in cell culture medium. Two hundred μl of cell suspension were aliquoted per well in the 96 well dish to obtain a final cell number of 75,000 cells per well. The plates were incubated overnight at 37° C. and 5% CO2 in a humidified cell incubator.
The medium was carefully removed from the wells by aspiration with an 18 g needle. The wells were gently rinsed once with 200 μl of warm Hanks balanced saline solution (HBSS, Gibco-BRL). […]
Stock solutions of test compound, such as Co-PP, Co-MP, or a Co-P of this invention, and of an H2O2 scavenger such as ebselen, were typically prepared in dimethylformamide or dimethylsulfoxide and diluted further into working concentrations using HBSS. […] The plate was read immediately in Cytofluor model 2350 system (Millipore; excitation wavelength: 485 nm; emission wavelength: 530 nm) for a 0 min timepoint reading. The cells were incubated for 30 minutes at room temperature with test compound following which a 30 min reading was taken. The change in RMF over the 30 minutes period was calculated for each well. […] The plate was then read in the Cytofluor (excitation wavelength: 360 nm; emission wavelength: 460 nm) and the Hoechst fluorescence values were used to normalize the DCFC-DA RMF data.

The next assay in a line: Weight loss assay. It is filed as in vivo, Male Sprague Dawley rats. As to conditions: 12 mM in vehicle, 400 μl per 100 grams body weight, subcutaneous, nuchal area, 8 days. How it is done: Male Sprague Dawley rats (approximately 200 g) were purchased from Charles River Canada, Inc. and were shipped to the Animal Care Facility at the University of Vermont. Upon arrival they were housed in separate cages with corncob bedding and ad lib access to tap water and purina rat chow. The animal facility is maintained at a temperature of 71° F. +/− 1° F. with a 12-hour light/dark cycle, lights on at 6:00 am and off at 6:00 pm. Two days later (Day-3) all rats were shaved in the nuchal area and baseline color photographs of the nuchal area were taken (light halothane anesthesia was utilized to facilitate the shaving). Three days later (Day 0) experimental compounds were made up at 12 mM concentrations in vehicle (i.e., saline:PEG400:EtOH (5:4:1), pH 7.4). Animals were injected subcutaneously in the nuchal area with the various stock solutions at a dose of 400 μl per 100 grams body weight. Typical injection volumes, therefore, range from 1 to 1.5 ml per animal. Animals were injected using a modified Z-track technique to try and minimize outflow of injected compounds due to the high volume utilized. Each animal was weighed prior to injection and all injections were accomplished in an approximately two-hour period. No anesthesia was utilized for injections.
Animals subsequently underwent daily weighing with a Mettler 6 second integrating balance and had ad lib access to tap water and purina rat chow. At various intervals after injections, the nuchal area of rats was again photographed. […] The scale used was 0 for no lesions, 5 for the worst lesions with breakdown of the skin and open flow of exudates. Grades in-between were estimated by the operator based on the size and severity of the lesion. […] After 8 days, final photographs were taken and all animals were euthanized, marking the end of the experiment.
Means of body weights for each group were calculated and plotted over time (FIG. 9A), as were numerical means of the lesion severity index (FIG. 9B). In FIGS. 9A and 9B, C=noninjected control, V=vehicle injected control, A=Co-MP, E=Cpd. No. (1-6) and F=Cpd. No. (4-4). […] Cpd.

Where [3] appears, read: 40 μM test compound, normalized to chloride salt of Co-MP = 1.

We go through 16 compounds from patent publication US20020165216A1, “Cobalt-porphyrin complexes and use thereof as an anti-obesity agent” (MitoKor, priority 2000, published 2002).

Consider “Cobalt (III) Mesoporphyrin IX Dimethyl Ester [(5-1)]”, for which, in assay [1] (Table 2, 40 μM test compound, normalized to chloride salt of Co-MP = 1), the “Relative Rate (oxygen consumption), effect of ligand and R5 moiety” value is given as 0.05-0.07.
Regarding “Cobalt (III) Mesoporphyrin IX bisglycinate monosodium salt, dimethyl ester [(1-1)]”, the “Relative Rate (oxygen consumption), effect of ligand, R5 and A moiety” value (from here on “Relative Rate … R5 and A moiety”) in assay [1] (setting [3]) worked out at 0.21 ± 0.04.
`c1c[nH]cn1` [imidazole]: the “O2 consumption / redox cycling (in words)” value in assay [1] is on record as “blocks generation of reactive oxygen species”.
On to “Cobalt (III) Mesoporphyrin IX Dithiobenzyl Ether [(10-1)]”, for which the “Relative Rate (oxygen consumption), effect of ligand, R5, A and n moiety” value (“Relative Rate … A and n moiety” below) in assay [1] (setting [3]) worked out at 0.021.
Regarding Cobalt (III) Mesioirogyrin IX [(11-1)], the “Relative Rate … A and n moiety” value in assay [1] (setting [3]) was found to be 0.0005.
As to “Cobalt (III) Mesoporphyrin IX bisglycinate monosodium salt, diisobutyl ester [(1-3)]”, the “Relative Rate … R5 and A moiety” value in assay [1] (setting [3]) is “(not detected)”.
For “Cobalt (III) Mesoporphyrin IX bisglycinate monosodium salt, diisoamyl ester [(1-4)]”, the “Relative Rate … R5 and A moiety” value in assay [1] (setting [3]) is recorded as “(not detected)”.
In the case of “Cobalt (III) Mesoporphyrin IX bisglycinate monosodium salt, diethyl ester [(1-5)]”, the “Relative Rate … R5 and A moiety” value in assay [1] (setting [3]) was 0.08 ± 0.01.
With `O=c1c2ccccc2[se]n1-c1ccccc1` [ebelsen, ebselen], in assay [2], the “scavenging of reactive oxygen species induced by Co-PP and Co-MP” value is on record as “scavanges the reactive oxygen species”.
In the case of “Cobalt (III) Mesoporphyrin IX Dibenzyl Ester [(8-1)]”, the “Relative Rate … A and n moiety” value in assay [1] (setting [3]) turned out to be 0.045.
For `CCC1=C(C)c2cc3[n-]c(cc4nc(cc5[n-]c(cc1n2)c(C)c5CCC(=O)NC(C)C)C(CCC(=O)NC(C)C)=C4C)c(C)c3CC.NCC(=O)O.NCC(=O)[O-].[Co+3]` [(4-4), Cobalt (III) mesoporphvrin IX bisglycinate, di—(N-isopropyl)amide], the body weight response result in the assay “Weight loss assay” is “favorable body weight responses”.
Regarding “Cobalt (III) Mesoporphyrin IX Diol [(6-1)]”, the “Relative Rate … A and n moiety” value in assay [1] (setting [3]) was found to be 0.56.
In the case of “Cobalt (III) mesoporphyrin IX bisimidazole, di(4-methoxybenzyl) amide [(4-2)]”, the “generation of reactive oxygen species (DCFC-DA fluorescence)” value in assay [2] (30 minutes with test compound) is “does not trigger generation of reactive oxygen species”. Moreover, the “Relative Rate … R5 and A moiety” value in assay [1] (setting [3]) is on record as “(not detected)”. In addition, the “O2 consumption / redox cycling (in words)” value in assay [1] is reported as “does not result in any O2 consumption”.
Take “Cobalt (III) Mesoporphyrin IX Diacetate [(7-1)]”: the “Relative Rate … A and n moiety” value in assay [1] (setting [3]) is reported as 0.07.
Turning to “Cobalt (III) Mesoporphyrin IX bisglycinate monosodium salt diisopropyl ester [(1-6)]”, the “Relative Rate … R5 and A moiety” value in assay [1] (setting [3]) is on record as “(not detected)”. In addition, the body weight response result in the assay “Weight loss assay” is recorded as “favorable body weight responses”.
As to “Cobalt (III) Mesoporphyrin IX bisglycinate monosodium salt dibutyl ester [(1-2)]”, the “Relative Rate … R5 and A moiety” value in assay [1] (setting [3]) is given as “(not detected)”.
